Experimental data as given in the NIST ThermoML archive (doi:10.1016/j.fluid.2018.10.024).

Key:
[1] = refractive index (Na D-line) (dimensionless); xn = mol fraction of the nth substance listed; conditions: 101 kPa, Liquid, Standard Abbe refractometry
[2] = xn = mol fraction of the nth substance listed; conditions: 101 kPa, Liquid; for viscosity: Capillary tube (Ostwald / Ubbelohde) method; for mass density: Vibrating tube method

CC(C)=O [acetone] + CO
Conditions | mass density, [2] [kg/m3] | refractive index, [1] | viscosity, [2] [mPa·s]
298.15 K, x2 = 0 | 784.41 | 1.3558 | 0.3034
298.15 K, x2 = 0.1036 | 786.21 | 1.3539 | 0.3003
298.15 K, x2 = 0.2043 | 787.49 | 1.3521 | 0.3006
298.15 K, x2 = 0.302 | 788.57 | 1.3502 | 0.3059
298.15 K, x2 = 0.4013 | 789.53 | 1.3483 | 0.3143
298.15 K, x2 = 0.5004 | 790.3 | 1.3458 | 0.3299
298.15 K, x2 = 0.6006 | 790.81 | 1.3426 | 0.3533
298.15 K, x2 = 0.6969 | 790.98 | 1.3389 | 0.3852
298.15 K, x2 = 0.802 | 790.73 | 1.3352 | 0.4316
298.15 K, x2 = 0.8965 | 789.83 | 1.3315 | 0.4833
303.15 K, x2 = 0 | 778.66 | 1.3534 | 0.2966
303.15 K, x2 = 0.1036 | 780.47 | 1.3513 | 0.295
303.15 K, x2 = 0.2043 | 781.81 | 1.3497 | 0.2939
303.15 K, x2 = 0.302 | 782.95 | 1.3482 | 0.2987
303.15 K, x2 = 0.4013 | 784 | 1.3464 | 0.3073
303.15 K, x2 = 0.5004 | 784.89 | 1.3439 | 0.3188
303.15 K, x2 = 0.6006 | 785.55 | 1.3407 | 0.34
303.15 K, x2 = 0.6969 | 785.85 | 1.3369 | 0.3663
303.15 K, x2 = 0.802 | 785.67 | 1.3328 | 0.4051
303.15 K, x2 = 0.8965 | 784.85 | 1.3291 | 0.4472
308.15 K, x2 = 0 | 773.08 | 1.3509 | 0.2831
308.15 K, x2 = 0.1036 | 774.93 | 1.3493 | 0.2807
308.15 K, x2 = 0.2043 | 776.27 | 1.3481 | 0.2803
308.15 K, x2 = 0.302 | 777.4 | 1.3465 | 0.2844
308.15 K, x2 = 0.4013 | 778.45 | 1.3444 | 0.2945
308.15 K, x2 = 0.5004 | 779.36 | 1.3419 | 0.3103
308.15 K, x2 = 0.6006 | 780.05 | 1.3385 | 0.3255
308.15 K, x2 = 0.6969 | 780.38 | 1.3349 | 0.3531
308.15 K, x2 = 0.802 | 780.24 | 1.3309 | 0.3857
308.15 K, x2 = 0.8965 | 779.53 | 1.3269 | 0.4278
313.15 K, x2 = 0 | 766.95 | 1.349 | 0.2689
313.15 K, x2 = 0.1036 | 768.83 | 1.3469 | 0.2647
313.15 K, x2 = 0.2043 | 770.26 | 1.3457 | 0.2657
313.15 K, x2 = 0.302 | 771.49 | 1.3435 | 0.2704
313.15 K, x2 = 0.4013 | 772.65 | 1.3415 | 0.2769
313.15 K, x2 = 0.5004 | 773.67 | 1.3392 | 0.2881
313.15 K, x2 = 0.6006 | 774.49 | 1.3362 | 0.3057
313.15 K, x2 = 0.6969 | 775.01 | 1.3329 | 0.3316
313.15 K, x2 = 0.802 | 775.12 | 1.3289 | 0.3619
313.15 K, x2 = 0.8965 | 774.65 | 1.3253 | 0.3989
318.15 K, x2 = 0 | 761.26 | 1.3449 | 0.2511
318.15 K, x2 = 0.1036 | 763.15 | 1.3432 | 0.2478
318.15 K, x2 = 0.2043 | 764.64 | 1.3414 | 0.2494
318.15 K, x2 = 0.302 | 765.92 | 1.3397 | 0.2526
318.15 K, x2 = 0.4013 | 767.11 | 1.3381 | 0.2601
318.15 K, x2 = 0.5004 | 768.17 | 1.3361 | 0.2692
318.15 K, x2 = 0.6006 | 769.04 | 1.3334 | 0.2903
318.15 K, x2 = 0.6969 | 769.62 | 1.3303 | 0.3096
318.15 K, x2 = 0.802 | 769.88 | 1.3262 | 0.3377
318.15 K, x2 = 0.8965 | 769.53 | 1.3221 | 0.375
